Assay results from patent publication US20050137221A1, “Novel azasugar derivative and drug containing the same as the active ingredient” (priority 2002, published 2005).

Key:
[1] = Inhibition of TPA-stimulated release of HB-EGF-AP fusion protein from HT-1080 transfectant; assay type: cell-based; conditions: Homo sapiens, 1 h, 60 nM TPA for 60 min, AP activity of culture supernatant at 405 nm
Description: Human fibrosarcoma HT-1080 transfectant expressing fusion protein of HB-EGF and human placental alkaline phosphatase (AP) were used for following tests.
The cultured transfectant was treated with Trypsin-EDTA solution, and suspended in Minimum Essential Medium without phenol red; supplemented with 10% FCS(hereinafter referred to as MEM) at the concentration of 1.0×10^5 cells/ml. Each 0.2 ml of the cell suspension was dispensed into individual wells of 96 well microplate, and incubated overnight in a CO2 incubator at 37° C. After the incubation, the culture supernatant was removed by suction and the wells were washed with 0.2 ml/well of phosphate buffered saline. The cells were pretreated with 0.1 ml/well of the test compound solution [dimethyl sulfoxide (hereinafter referred to as DMSO) solution was diluted to 100 times with MEM] for 30 min in a CO2 incubator at 37° C. Then the culture supernatant was removed by suction and cells were treated with 0.2 ml/well of TPA solution (120 μM of DMSO solution was diluted to 60 nM with MEM) containing the same concentration of the compound as pretreatment for 60 min in a CO2 incubator at 37° C. The cells pretreated with MEM and incubated with only the TPA solution containing no test compound were used as control.
After these treatments, each 0.1 ml of culture supernatant collected from each well and 0.1 ml of MEM as background were transferred to individual wells of new 96 well microplate and incubated at 65° C. for 10 min after plate sealing to inactivate endogenous AP in MEM and cells. 0.1 ml of the substrate solution (prepared by diluting an aqueous 100 mg/ml p-nitrophenyl phosphate solution prepared previously 100 times with 0.01% magnesium chloride/1 M diethanolamine before use) for AP was added to each well and incubated for 120 minutes at room temperature in the dark. The absorbance at a wavelength of 405 nm of each well was measured using a microplate reader.

[2] = test system: epidermal hyperplasia in male BALB/c mice; assay: TPA-induced epidermal hyperplasia on mouse dorsal skin (epidermal thickness); assay type: in vivo; conditions: topical application in acetone 5 minutes, 24 hours and 48 hours after TPA; skin excised at 72 hours; FIG. 1
Description: After backs of male BALB/c mice were shaved, 10 μL of a TPA-acetone solution (0.1 mM) was applied to the dorsal skin surface in an area of about 1 cm^2. In the medicine-treated group, a volume of 20 μL of a solution prepared by dissolving the test compound in acetone was applied to the same area 5 minutes, 24 hours and 48 hours after TPA application. In the non-treated group, only TPA was applied. In the control group, acetone was applied instead of the TPA-acetone solution.
The mice were sacrificed and the skin tissues were excised 72 hours after TPA application. Then the tissues were fixed with formalin, the vertical sections including the center of the TPA- or acetone-treated area were prepared and embedded in paraffin according to the conventional method. And they were stained by hematoxylin-eosin after removing paraffin. The epidermal thickness was measured using a microscope.
In FIG. 1, the numeral in the ordinate represents the epidermal thickness (μm). A bar graph of TPA (-) represents the epidermal thickness of the control group and a bar graph of TPA represents the epidermal thickness of the non-treated group. The respective bar graphs of 1, 10 and 100 denote the epidermal thickness of the group wherein the test compound is administered at a dose of 1, 10 and 100 (μg/wound) of each test compound. […]

| Compound | IC50 [1] [nM] | hyperplasia inhibitory activity (epidermal thickness) [2] |
| --- | --- | --- |
| COc1ccc(S(=O)(=O)N2C[C@H](O)[C@@H](O)[C@H](O)[C@@H]2C(=O)NO)cc1 [Compound a, (2R,3R,4R,5S)-3,4,5-trihydroxy-1-(4′-methoxybenzenesulfonyl)-piperidine-2-carboxylic acid hydroxamide] | 610 |  |
| CCOCCOc1ccc(S(=O)(=O)N2C[C@H](O)[C@@H](O)[C@H](O)[C@@H]2C(=O)NO)cc1 [Compound b, (2R,3R,4R,5S)-1-(4′-ethoxyethoxy-benzenesulfonyl)-3,4,5-trihydroxy-piperidine-2-carboxylic acid hydroxamide] | 450 |  |
| COc1ccc(S(=O)(=O)N2C[C@H](O)[C@@H](O)[C@@H](O)[C@@H]2C(=O)NO)cc1 [Compound d, (2R,3S,4R,5S)-3,4,5-trihydroxy-1-(4′-methoxybenzenesulfonyl)-piperidine-2-carboxylic acid hydroxamide] | 1600 |  |

Now those with a lower IC50 [1], led by results:

| IC50 [1] [nM] | Compound | hyperplasia inhibitory activity (epidermal thickness) [2] |
| --- | --- | --- |
| 350 | O=C(NO)[C@H]1[C@@H](O)[C@H](O)[C@@H](O)CN1S(=O)(=O)c1ccc(Oc2ccccc2)cc1 [Compound c, (2R,3R,4R,5S)-3,4,5-trihydroxy-1-(4′-phenoxybenzenesulfonyl)-piperidine-2-carboxylic acid hydroxamide] | hyperplasia inhibitory activity |
| 340 | O=C(NO)[C@H]1[C@@H](O)[C@H](O)[C@H](O)CN1S(=O)(=O)c1ccc(Oc2ccccc2)cc1 [Compound e, (2R,3R,4R,5R)-3,4,5-trihydroxy-1-(4′-phenoxybenzenesulfonyl)-piperidine-2-carboxylic acid hydroxamide] |  |
